Consider 1 compound from publication PMC6148246, “HS-1371, a novel kinase inhibitor of RIP3-mediated necroptosis” (Experimental & Molecular Medicine, 2018).

For one test, the target named is T1, necrosome complex (Homo sapiens, UniProt Q9Y572).
T1 construct: endogenous in cells; host or cells: HT-29
The experiment in a line: Necrosome complex formation, anti-RIP3 immunoprecipitation in HT-29 cells. The class given is cell-based. To be noted: HT-29, 5 μM pretreated 2 h, TSZ 4 h. The protocol:
Cells were rinsed in cold phosphate-buffered saline (PBS) and lysed in M2 buffer containing 20 mM Tris at pH 7, 0.5% NP-40, 250 mM NaCl, 3 mM EDTA, 3 mM EGTA, 2 mM DTT, 0.5 mM PMSF, 20 mM β-glycerol phosphate, 1 mM sodium vanadate, and 1 μg/mL leupeptin. The cell extracts were subjected to western blot analysis. For immunoprecipitation, lysates were mixed and precipitated with antibody and protein A-agarose beads overnight or for 4 h at 4 °C. Bound proteins were removed by boiling in SDS and resolved by SDS-PAGE, and immunoblotting was visualized by enhanced chemiluminescence (ECL, Amersham).
Fig. 2 Novel inhibitors can block RIP3 S227 phosphorylation. a Western blotting showing various kinase inhibitor effects on RIP3 S227 auto-phosphorylation. HT-29 cells were treated with four tested kinase inhibitors (1308, 1336, 1338, and 1371, 10 μM) for 9 h. As a control, KK5101 (Trk alpha inhibitor) and HS829 (IKK beta inhibitor) were also treated at a concentration of 10 μM for 9 h. […] HT-29 cells were treated with 4 tested kinase inhibitors for 24 h, and cell viability was analyzed by MTT assay or phase-contrast microscopy. […] Cell lysates were analyzed by immunoblotting. f HT-29 cells were pretreated with Nec-1 (40 μM), DAB (5 μM) or HS-1371 (5 μM) for 2 h and then treated with TSZ for 4 h. […] Immunoprecipitates and total lysates were analyzed by Western blotting

A further test relates to p-MLKL. The test can be described thus: Phospho-MLKL immunofluorescence in HT-29 cells. The class given is cell-based, human. To be noted: HT-29, immunofluorescence. The protocol: HT-29 cells were fixed in 4% paraformaldehyde for 10 min. To stain phospho-MLKL, cells were permeabilized with 0.25% Triton X-100 for 10 min. After incubation in a blocking buffer (10% fetal bovine serum in DPBS) for 30 min, the primary antibody to phospho-MLKL was incubated overnight at 4 °C, and FITC-conjugated secondary antibody (goat anti-rabbit IgG, 1:250, dilution, Invitrogen) was incubated for 1 h at room temperature. A mounting medium containing DAPI (VECTASHIELD, Cat No. 94010, Vector Laboratories) was used for counterstaining. Representative images were taken by confocal microscope.
HT-29 cells were pretreated with four tested inhibitors for 2 h and then treated with TSZ (6 h for immunoblotting, 24 h for cell death assay). Cell lysates were analyzed by immunoblotting, and cell viability was analyzed by MTT assay or phase-contrast microscopy. The results are presented as the means ± SEM. *P < 0.05, **P < 0.01, ***P < 0.001. b Protection of necroptosis by HS-1371 treatment is similar with dabrafenib, which abolished downstream events. HT-29 cells were pretreated with various necroptosis inhibitors and HS-1371 before TSZ treatment. Cell lysates were analyzed by immunoblotting, and cell viability was analyzed by MTT assay (left panel). Cells were stained with phospho-MLKL antibody and analyzed by confocal fluorescence microscopy (middle panel), and cell death was further analyzed by FACS analysis after PI staining (right panel). c HS-1371 protects cells from TNF-induced necroptosis in a dose-dependent manner. HT-29 cells were pretreated with indicated concentrations of HS-1371 and then treated with TSZ (6 h for immunoblotting, 24 h for cell death assay). Cell lysates were analyzed by immunoblotting, and cell viability was analyzed by MTT assay or phase-contrast microscopy. The results are presented as means ± SEM. *P < 0.05, **P < 0.01, ***P < 0.001 TEXT PRINTED IN THE PICTURE: (b) TSZ: 20.7 | (b) TSZ + Nec-1: 5.8 | (b) TSZ + DAB: 5.5 | (b) TSZ + 1371: 6.8 DOUBTS OF THE COPYIST ABOUT THIS PICTURE: Panel b, flow cytometry plots: the red gate numbers are printed without a measure or unit, so none is given / Panel b: the 'Untreated' control plot prints 7.7; left out because it is not a substance

For the next test, the system named is HeLa cells. The test can be described thus: HeLa cells ectopically expressing RIP3 (immunoblot, MTT). The class given is cell-based, human. The protocol:
HEK293T, HT-29, H2009, L929, HeLa, and MEF cells were grown in Dulbecco’s Modified Eagle’s Medium (DMEM) supplemented with 10% fetal bovine serum (FBS). RAW264.7 cells were grown in Roswell Park Memorial Institute (RPMI) 1640 media supplemented with 10% FBS. To generate cell lines stably expressing the RIP3 construct, HeLa and H2009 cells were infected with pLX303-hRIP3 lentivirus.
Cells were pretreated with DAB or HS-1371 for 2 h and then treated with TSZ (6 h for immunoblotting, 24 h for cell death assay). Cell lysates were analyzed by immunoblotting (left bottom panel), and cell viability was analyzed by MTT assay (right panel). The results are presented as means ± SEM. *P < 0.05, **P < 0.01, ***P < 0.001. c, d HS-1371 had the same effect on mouse cells. L929 (mouse sarcoma, c) and MEF (mouse embryonic fibroblast, d) cells were pretreated with inhibitors and then necroptosis was induced by TNF. Cell lysates were analyzed by immunoblotting (upper panel), and cell viability was analyzed by MTT assay (bottom panel). The results are presented as means ± SEM. *P < 0.05, **P < 0.01, ***P < 0.001
For orientation: Immunoblotting shows a protein as a band on a membrane.

A further test concerns 293T cells. The experiment in a line: RIP3 overexpression-induced cell death in 293T cells (PI staining). The class given is cell-based, human. To be noted: 293T transfected with Flag-RIP3, 20 h. The protocol: Fig. 6 Possibility of HS-1371 as a drug for necroptosis-related diseases. a, b HT-29 cells were pre- or post-treated with HS-1371 for indicated time points, and RIP3 phosphorylation (a) and cell death (b) were measured by western blotting or MTT assay. Data are presented as means ± SEM. *P < 0.05, **P < 0.01, ***P < 0.001. c HT-29 cells were treated with TSZ and then post-treated with HS-1371 for indicated time points, and then cell lysates were analyzed by immunoblotting (upper panel). Cell viability was analyzed by MTT assay. Data are presented as means ± SEM. *P < 0.05, **P < 0.01, ***P < 0.001. d Cells were treated with the same conditions as (c), and cell lysates were immunoprecipitated with anti-RIP3 antibody. […] 293T cells were transfected with Flag vector or Flag-RIP3, and 20 h after transfection, cells were stained with PI. PI-positive cells were analyzed by phase-contrast fluorescence microscopy

T1 sequence (Q9Y572 whole entry, one chain of several): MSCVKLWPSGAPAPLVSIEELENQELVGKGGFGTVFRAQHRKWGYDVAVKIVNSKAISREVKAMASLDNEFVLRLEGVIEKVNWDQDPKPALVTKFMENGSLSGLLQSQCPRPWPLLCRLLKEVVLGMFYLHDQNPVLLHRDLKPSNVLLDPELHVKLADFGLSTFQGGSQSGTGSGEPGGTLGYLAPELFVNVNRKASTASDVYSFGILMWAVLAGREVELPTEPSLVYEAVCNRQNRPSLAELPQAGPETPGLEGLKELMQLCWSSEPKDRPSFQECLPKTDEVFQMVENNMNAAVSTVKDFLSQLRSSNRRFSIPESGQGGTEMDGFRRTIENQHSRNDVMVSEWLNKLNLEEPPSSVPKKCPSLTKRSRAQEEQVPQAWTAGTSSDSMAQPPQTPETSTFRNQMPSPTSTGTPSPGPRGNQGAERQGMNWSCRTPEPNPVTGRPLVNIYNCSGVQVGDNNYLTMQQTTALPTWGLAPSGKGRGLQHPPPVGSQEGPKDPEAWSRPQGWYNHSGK

Regarding `Cc1ccc(Oc2ccnc3cc(-c4cnn(C5CCNCC5)c4)ccc23)cc1` [HS-1371, 7-(1-(Piperidin-4-yl)-1H-pyrazol-4-yl)-4-(p-tolyloxy)quinoline], at necrosome complex, the “necrosome complex formation (MLKL recruitment)” value is given as “blocked necrosome complex formation”. The “p-MLKL detection / translocation after TSZ” value in the test with p-MLKL is “no detection of p-MLKL”. Moreover, the “basal RIP3 phosphorylation” value in the test on HeLa cells (HeLa with ectopic RIP3, 6 h, dose-dependent) is given as “decreased”. Moreover, the “cell viability after TSZ” value with HeLa cells (HeLa with ectopic RIP3, TSZ 24 h, MTT, dose-dependent) is listed as “gradually increased”. Besides, the “TSZ-induced RIP3 phosphorylation and MLKL phosphorylation” value in the test with HeLa cells (HeLa with ectopic RIP3, pretreated 2 h, TSZ 6 h) is listed as “effectively blocked”. Also, the “cell death by RIP3 ectopic expression (PI-positive staining)” value in the test with 293T cells is recorded as “completely blocked”.
